# Experiments:
# southern crabgrass = assay: Test Example 4: herbicidal effect by soil treatment (Table 19, symbol F); assay type: in vivo, southern crabgrass (Digitaria ciliaris)
# Procedure, shortened: (§1)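 Three weeks of greenhouse growth at 25° C. to 30° C. followed a uniform surface spray of water-diluted emulsion at a predetermined herbicide amount. Seeds had been sown beforehand under about 1.5 cm of sterilized diluvial soil. Grading followed criteria set out in an earlier test.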
# late watergrass = assay: Test Example 2: herbicidal activity, application during weed generation under submerged conditions (Table 17, symbol A); assay type: in vivo, late watergrass (Echinochloa oryzicola); details: for herbicidal effect grade, A: late watergrass: application during weed generation under submerged conditions; for herbicidal effect rating, A: late watergrass: application during weed generation, submerged conditions
# Procedure, shortened: (§2)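 Wagner pot, alluvial soil, 4 cm flood; mixed sowing of all species; greenhouse 25° C.–30° C. Emulsifiable formulation, water-diluted to predetermined dose, applied to paddy water at 1–2 leaf stage. Effect rated at 3 wk using the earlier test's scoring criteria.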
# barnyard grass = assay: Test Example 5: herbicidal effect by foliage application, plastic box (Table 20, symbol H); assay type: in vivo, barnyard grass (Echinochloa crus-galli); details: foliage application; for H (barnyard grass) herbicidal effect grade: evaluated 3 weeks after application; for H: barnyard grass, herbicidal effect grade: three weeks after application
# Procedure, shortened: (§3)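 Plants sown in sterilized diluvial soil and grown 14 days in a greenhouse at 25° C to 30° C, then sprayed on the foliage with the compound's emulsion diluted in water to a predetermined herbicide amount. Injury to weeds and crops scored three weeks after application on a visual rating scale.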
# redroot pigweed [1] = assay: Test Example 5: herbicidal effect by foliage application, plastic box (Table 20, symbol N); assay type: in vivo, redroot pigweed (Amaranthus retroflexus); details: foliage application; for N (redroot pigweed) herbicidal effect grade: evaluated 3 weeks after application; for N: redroot pigweed, herbicidal effect grade: three weeks after application
# Procedure, shortened: as §3
# Japanese bulrush [2] = assay: Test Example 1: herbicidal activity, application before weed generation under submerged conditions (Table 16, symbol B); assay type: in vivo, Japanese bulrush (Schoenoplectus juncoides)
# Procedure, shortened: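 Alluvial soil was flooded to 4 cm depth, weed seeds were sown mixed and 2.5-leaf rice seedlings were transplanted. On sowing day, the compound's emulsion, diluted in water to a set dose, was applied to the water surface. Plants grew at 25–30 °C and were scored 0–5 after three weeks.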
# chickweed [3] = assay: Test Example 5: herbicidal effect by foliage application, plastic box (Table 20, symbol P); assay type: in vivo, common chickweed (Stellaria media); details: foliage application; for P (chickweed) herbicidal effect grade: evaluated 3 weeks after application; for P: chickweed, herbicidal effect grade: three weeks after application
# Procedure, shortened: as §3
# wild oat [4] = assay: Test Example 4: herbicidal effect by soil treatment (Table 19, symbol I); assay type: in vivo, wild oat (Avena fatua)
# Procedure, shortened: as §1
# blackgrass [5] = assay: Test Example 5: herbicidal effect by foliage application, plastic box (Table 20, symbol J); assay type: in vivo, blackgrass (Alopecurus myosuroides); details: foliage application; for J (blackgrass) herbicidal effect grade: evaluated 3 weeks after application; for J: blackgrass, herbicidal effect grade: three weeks after application
# Procedure, shortened: as §3
# velvetleaf = assay: Test Example 4: herbicidal effect by soil treatment (Table 19, symbol M); assay type: in vivo, velvetleaf (Abutilon theophrasti)
# Procedure, shortened: as §1
# blackgrass [6] = assay: Test Example 4: herbicidal effect by soil treatment (Table 19, symbol J); assay type: in vivo, blackgrass (Alopecurus myosuroides)
# Procedure, shortened: as §1
# rice flat sedge = assay: Test Example 3: herbicidal effect by foliage application, Wagner pot (Table 18, symbol E); assay type: in vivo, rice flat sedge (Cyperus iria)
# Procedure, shortened: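 Plants were sown in alluvial soil held under 0.1–0.5 cm standing water and grown 14 days in a greenhouse at 25–30 °C. An emulsifiable formulation, water-diluted to the set dose, was then sprayed onto the foliage, and effects were scored three weeks later using previously defined criteria.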
# Japanese bulrush [7] = assay: Test Example 2: herbicidal activity, application during weed generation under submerged conditions (Table 17, symbol B); assay type: in vivo, Japanese bulrush (Schoenoplectus juncoides); details: for herbicidal effect grade, B: Japanese bulrush: application during weed generation under submerged conditions; for herbicidal effect rating, B: Japanese bulrush: application during weed generation, submerged conditions
# Procedure, shortened: as §2
# chickweed [8] = assay: Test Example 4: herbicidal effect by soil treatment (Table 19, symbol P); assay type: in vivo, common chickweed (Stellaria media)
# Procedure, shortened: as §1
# wild oat [9] = assay: Test Example 5: herbicidal effect by foliage application, plastic box (Table 20, symbol I); assay type: in vivo, wild oat (Avena fatua); details: foliage application; for I (wild oat) herbicidal effect grade: evaluated 3 weeks after application; for I: wild oat, herbicidal effect grade: three weeks after application
# Procedure, shortened: as §3
# redroot pigweed [10] = assay: Test Example 4: herbicidal effect by soil treatment (Table 19, symbol N); assay type: in vivo, redroot pigweed (Amaranthus retroflexus)
# Procedure, shortened: as §1
# oval-leafed pondweed = assay: Test Example 2: herbicidal activity, application during weed generation under submerged conditions (Table 17, symbol C); assay type: in vivo, oval-leafed pondweed (Monochoria vaginalis); details: for herbicidal effect grade, C: oval-leafed pondweed: application during weed generation under submerged conditions; for herbicidal effect rating, C: oval-leafed pondweed: application during weed generation, submerged conditions
# Procedure, shortened: as §2
# green foxtail = assay: Test Example 4: herbicidal effect by soil treatment (Table 19, symbol G); assay type: in vivo, green foxtail (Setaria viridis)
# Procedure, shortened: as §1
# [11] = amount of applied herbicide 402 g/ha
# [12] = amount of applied herbicide 320 g/ha
# [13] = amount of applied herbicide 214 g/ha
smiles,measurement,setting,value
CCCC(=O)Oc1c(C)nn(C)c(=O)c1-c1c(-c2ccc(SC(C)C)cc2)oc2ccc(C)cc12 [9-060],"F: southern crabgrass, herbicidal effect grade",southern crabgrass; [11],1 (Herbicidal rate of 5% or more and less than 20%)
same,"herbicidal effect grade, A: late watergrass",late watergrass; [11],4 (Herbicidal rate of 70% or more and less than 90%)
same,H (barnyard grass) herbicidal effect grade,barnyard grass; 402 g/ha,3 (Herbicidal rate of 40% or more and less than 70%)
same,N (redroot pigweed) herbicidal effect grade,redroot pigweed [1]; 402 g/ha,5 (Herbicidal rate of 90% or more (almost completely withered))
same,"Herbicidal effect, B: Japanese bulrush",Japanese bulrush [2]; [11],4 (Herbicidal rate of 70% or more and less than 90%)
same,P (chickweed) herbicidal effect grade,chickweed [3]; 402 g/ha,5 (Herbicidal rate of 90% or more (almost completely withered))
same,"I: wild oat, herbicidal effect grade",wild oat [4]; [11],0 (Herbicidal rate of 5% or less (almost no effect))
same,J (blackgrass) herbicidal effect grade,blackgrass [5]; 402 g/ha,1 (Herbicidal rate of 5% or more and less than 20%)
same,"M: velvetleaf, herbicidal effect grade",velvetleaf; [11],3 (Herbicidal rate of 40% or more and less than 70%)
same,"J: blackgrass, herbicidal effect grade",blackgrass [6]; [11],0 (Herbicidal rate of 5% or less (almost no effect))
same,"Herbicidal effect on E (rice flat sedge), foliage application",rice flat sedge; [11],5 (Herbicidal rate of 90% or more (almost completely withered))
same,"herbicidal effect grade, B: Japanese bulrush",Japanese bulrush [7]; [11],3 (Herbicidal rate of 40% or more and less than 70%)
same,"P: chickweed, herbicidal effect grade",chickweed [8]; [11],1 (Herbicidal rate of 5% or more and less than 20%)
same,I (wild oat) herbicidal effect grade,wild oat [9]; 402 g/ha,3 (Herbicidal rate of 40% or more and less than 70%)
same,"N: redroot pigweed, herbicidal effect grade",redroot pigweed [10]; [11],5 (Herbicidal rate of 90% or more (almost completely withered))
same,"herbicidal effect grade, C: oval-leafed pondweed",oval-leafed pondweed; [11],4 (Herbicidal rate of 70% or more and less than 90%)
same,"G: green foxtail, herbicidal effect grade",green foxtail; [11],3 (Herbicidal rate of 40% or more and less than 70%)
CCCC(=O)Oc1c(C)nn(C)c(=O)c1-c1c(-c2ccc(COC)cc2)oc2ccc(C)cc12 [9-062],"F: southern crabgrass, herbicidal effect grade",southern crabgrass; [12],4 (Herbicidal rate of 70% or more and less than 90%)
same,"herbicidal effect grade, A: late watergrass",late watergrass; [12],3 (Herbicidal rate of 40% or more and less than 70%)
same,H (barnyard grass) herbicidal effect grade,barnyard grass; 320 g/ha,4 (Herbicidal rate of 70% or more and less than 90%)
same,N (redroot pigweed) herbicidal effect grade,redroot pigweed [1]; 320 g/ha,5 (Herbicidal rate of 90% or more (almost completely withered))
same,"Herbicidal effect, B: Japanese bulrush",Japanese bulrush [2]; [12],5 (Herbicidal rate of 90% or more (almost completely withered))
same,P (chickweed) herbicidal effect grade,chickweed [3]; 320 g/ha,5 (Herbicidal rate of 90% or more (almost completely withered))
same,"I: wild oat, herbicidal effect grade",wild oat [4]; [12],0 (Herbicidal rate of 5% or less (almost no effect))
same,J (blackgrass) herbicidal effect grade,blackgrass [5]; 320 g/ha,4 (Herbicidal rate of 70% or more and less than 90%)
same,"M: velvetleaf, herbicidal effect grade",velvetleaf; [12],5 (Herbicidal rate of 90% or more (almost completely withered))
same,"J: blackgrass, herbicidal effect grade",blackgrass [6]; [12],4 (Herbicidal rate of 70% or more and less than 90%)
same,"Herbicidal effect on E (rice flat sedge), foliage application",rice flat sedge; [12],5 (Herbicidal rate of 90% or more (almost completely withered))
same,"herbicidal effect grade, B: Japanese bulrush",Japanese bulrush [7]; [12],3 (Herbicidal rate of 40% or more and less than 70%)
same,"P: chickweed, herbicidal effect grade",chickweed [8]; [12],3 (Herbicidal rate of 40% or more and less than 70%)
same,I (wild oat) herbicidal effect grade,wild oat [9]; 320 g/ha,0 (Herbicidal rate of 5% or less (almost no effect))
same,"N: redroot pigweed, herbicidal effect grade",redroot pigweed [10]; [12],5 (Herbicidal rate of 90% or more (almost completely withered))
same,"herbicidal effect grade, C: oval-leafed pondweed",oval-leafed pondweed; [12],3 (Herbicidal rate of 40% or more and less than 70%)
same,"G: green foxtail, herbicidal effect grade",green foxtail; [12],5 (Herbicidal rate of 90% or more (almost completely withered))
"COc1ccc2c(-c3c(O)c(C)nn(C)c3=O)c(-c3ccccc3OC)sc2c1 [Compound No. 3-065, 5-hydroxy-4-(6-methoxy-2-(2-methoxyphenyl)benzo[b]thiophen-3-yl)-2,6-dimethylpyridazin-3(2H)-one]","F: southern crabgrass, herbicidal effect grade",southern crabgrass; [13],3 (Herbicidal rate of 40% or more and less than 70%)
same,"herbicidal effect rating, A: late watergrass",late watergrass; AAH 214 g/ha,0 (Herbicidal rate of 5% or less (almost no effect))
same,"H: barnyard grass, herbicidal effect grade",barnyard grass; 214 g/ha,5 (Herbicidal rate of 90% or more (almost completely withered))
same,"N: redroot pigweed, herbicidal effect grade",redroot pigweed [1]; 214 g/ha,3 (Herbicidal rate of 40% or more and less than 70%)
same,"Herbicidal effect, B: Japanese bulrush",Japanese bulrush [2]; [13],3 (Herbicidal rate of 40% or more and less than 70%)
same,"P: chickweed, herbicidal effect grade",chickweed [3]; 214 g/ha,5 (Herbicidal rate of 90% or more (almost completely withered))
same,"I: wild oat, herbicidal effect grade",wild oat [4]; [13],2 (Herbicidal rate of 20% or more and less than 40%)
same,"J: blackgrass, herbicidal effect grade",blackgrass [5]; 214 g/ha,5 (Herbicidal rate of 90% or more (almost completely withered))
same,"M: velvetleaf, herbicidal effect grade",velvetleaf; [13],0 (Herbicidal rate of 5% or less (almost no effect))
same,"J: blackgrass, herbicidal effect grade",blackgrass [6]; [13],3 (Herbicidal rate of 40% or more and less than 70%)
same,herbicidal effect on rice flat sedge (E),rice flat sedge; 214 g/ha,5 (Herbicidal rate of 90% or more (almost completely withered))
same,"herbicidal effect rating, B: Japanese bulrush",Japanese bulrush [7]; AAH 214 g/ha,1 (Herbicidal rate of 5% or more and less than 20%)
same,"P: chickweed, herbicidal effect grade",chickweed [8]; [13],5 (Herbicidal rate of 90% or more (almost completely withered))
same,"I: wild oat, herbicidal effect grade",wild oat [9]; 214 g/ha,4 (Herbicidal rate of 70% or more and less than 90%)
same,"N: redroot pigweed, herbicidal effect grade",redroot pigweed [10]; [13],4 (Herbicidal rate of 70% or more and less than 90%)
same,"herbicidal effect rating, C: oval-leafed pondweed",oval-leafed pondweed; AAH 214 g/ha,3 (Herbicidal rate of 40% or more and less than 70%)
same,"G: green foxtail, herbicidal effect grade",green foxtail; [13],5 (Herbicidal rate of 90% or more (almost completely withered))
"COc1ccc2c(-c3c(O)c(Cl)nn(C)c3=O)c(-c3ccccc3OC)sc2c1 [Compound No. 3-088, 6-chloro-5-hydroxy-4-(6-methoxy-2-(2-methoxyphenyl)benzo[b]thiophen-3-yl)-2-methylpyridazin-3(2H)-one]","F: southern crabgrass, herbicidal effect grade",southern crabgrass; [12],4 (Herbicidal rate of 70% or more and less than 90%)
same,"herbicidal effect rating, A: late watergrass",late watergrass; AAH 320 g/ha,3 (Herbicidal rate of 40% or more and less than 70%)
same,"H: barnyard grass, herbicidal effect grade",barnyard grass; 320 g/ha,4 (Herbicidal rate of 70% or more and less than 90%)
same,"N: redroot pigweed, herbicidal effect grade",redroot pigweed [1]; 320 g/ha,4 (Herbicidal rate of 70% or more and less than 90%)
same,"Herbicidal effect, B: Japanese bulrush",Japanese bulrush [2]; [12],5 (Herbicidal rate of 90% or more (almost completely withered))
same,"P: chickweed, herbicidal effect grade",chickweed [3]; 320 g/ha,5 (Herbicidal rate of 90% or more (almost completely withered))
same,"I: wild oat, herbicidal effect grade",wild oat [4]; [12],0 (Herbicidal rate of 5% or less (almost no effect))
same,"J: blackgrass, herbicidal effect grade",blackgrass [5]; 320 g/ha,3 (Herbicidal rate of 40% or more and less than 70%)
same,"M: velvetleaf, herbicidal effect grade",velvetleaf; [12],5 (Herbicidal rate of 90% or more (almost completely withered))
same,"J: blackgrass, herbicidal effect grade",blackgrass [6]; [12],0 (Herbicidal rate of 5% or less (almost no effect))
same,herbicidal effect on rice flat sedge (E),rice flat sedge; 320 g/ha,5 (Herbicidal rate of 90% or more (almost completely withered))
same,"herbicidal effect rating, B: Japanese bulrush",Japanese bulrush [7]; AAH 320 g/ha,3 (Herbicidal rate of 40% or more and less than 70%)
same,"P: chickweed, herbicidal effect grade",chickweed [8]; [12],5 (Herbicidal rate of 90% or more (almost completely withered))
same,"I: wild oat, herbicidal effect grade",wild oat [9]; 320 g/ha,3 (Herbicidal rate of 40% or more and less than 70%)
same,"N: redroot pigweed, herbicidal effect grade",redroot pigweed [10]; [12],5 (Herbicidal rate of 90% or more (almost completely withered))
same,"herbicidal effect rating, C: oval-leafed pondweed",oval-leafed pondweed; AAH 320 g/ha,3 (Herbicidal rate of 40% or more and less than 70%)
same,"G: green foxtail, herbicidal effect grade",green foxtail; [12],5 (Herbicidal rate of 90% or more (almost completely withered))

# — US20230085307A1, “PYRIDAZINONE COMPOUND AND HERBICIDE” (NISSAN CHEMICAL CORPORATION, priority 2019, published 2023)
